Measurements published in article PMC2615555 (Virology, 2008).

Key:
I-A^d = molecular target: T1, I-A^d (Mus musculus, UniProt P01921+P04228); experiment: biochemical; type: binding, BALB/c mouse
T1 sequence (P04228 24-256): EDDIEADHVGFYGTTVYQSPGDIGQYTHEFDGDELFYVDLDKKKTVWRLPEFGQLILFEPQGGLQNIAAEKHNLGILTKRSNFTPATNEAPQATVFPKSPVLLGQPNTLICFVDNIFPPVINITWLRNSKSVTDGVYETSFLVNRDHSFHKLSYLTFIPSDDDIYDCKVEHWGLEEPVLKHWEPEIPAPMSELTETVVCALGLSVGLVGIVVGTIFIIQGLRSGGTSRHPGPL
T1 sequence (P01921 28-265): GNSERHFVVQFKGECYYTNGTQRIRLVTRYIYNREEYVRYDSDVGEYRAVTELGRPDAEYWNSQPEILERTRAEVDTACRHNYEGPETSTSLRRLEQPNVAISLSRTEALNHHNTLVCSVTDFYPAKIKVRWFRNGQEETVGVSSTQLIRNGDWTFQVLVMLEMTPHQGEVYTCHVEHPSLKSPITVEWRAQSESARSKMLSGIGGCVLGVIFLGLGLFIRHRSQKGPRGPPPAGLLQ

I-E^d = molecular target: T2, I-E^d (Mus musculus, UniProt P01904+P01915); experiment: biochemical; type: binding, BALB/c mouse
T2 sequence (P01904 26-255): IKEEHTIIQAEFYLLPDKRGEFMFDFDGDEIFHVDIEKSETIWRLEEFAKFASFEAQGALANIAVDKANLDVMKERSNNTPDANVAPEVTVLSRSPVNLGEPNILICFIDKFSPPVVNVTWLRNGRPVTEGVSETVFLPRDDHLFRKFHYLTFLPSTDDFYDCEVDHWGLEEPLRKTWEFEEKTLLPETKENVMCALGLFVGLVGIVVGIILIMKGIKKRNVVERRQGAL
T2 sequence (P01915 27-264 limits assumed): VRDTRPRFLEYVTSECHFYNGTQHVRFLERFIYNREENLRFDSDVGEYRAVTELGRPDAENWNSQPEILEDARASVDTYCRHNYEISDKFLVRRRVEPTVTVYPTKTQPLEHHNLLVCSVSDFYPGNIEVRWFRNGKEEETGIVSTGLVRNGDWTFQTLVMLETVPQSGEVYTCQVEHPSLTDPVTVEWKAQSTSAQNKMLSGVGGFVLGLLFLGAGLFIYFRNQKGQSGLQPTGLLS

[1] = Binding Assay IC50, I-A^d (envelope 15mers)
[2] = Binding Assay IC50, I-A^d (membrane 15mers)

| SMILES | IC50 (I-A^d; [2]) [µM] | IC50 (I-E^d) [µM] | also measured |
| --- | --- | --- | --- |
| CSCC[C@H](NC(=O)[C@H](CC(C)C)NC(=O)[C@H](CO)NC(=O)[C@H](C)NC(=O)[C@@H](NC(=O)[C@@H](NC(=O)[C@H](CCCNC(=N)N)NC(=O)[C@H](CCCCN)NC(=O)[C@@H](NC(=O)[C@H](CCCCN)NC(=O)[C@H](CCCNC(=N)N)NC(=O)[C@H](CC(C)C)NC(=O)[C@@H](NC(=O)[C@H](C)NC(=O)[C@@H](N)CC(C)C)C(C)C)C(C)C)C(C)C)C(C)C)C(=O)O [C77–91] | – | – | Binding Assay IC50, I-A^d (capsid 15mers) (I-A^d): high affinity |
| CSCC[C@H](NC(=O)[C@H](CC(C)C)NC(=O)[C@H](CO)NC(=O)[C@H](C)NC(=O)[C@@H](NC(=O)[C@@H](NC(=O)[C@H](CCCNC(=N)N)NC(=O)[C@H](CCCCN)NC(=O)[C@@H](NC(=O)[C@H](CCCCN)NC(=O)[C@@H](N)CCCNC(=N)N)C(C)C)C(C)C)C(C)C)C(=O)N[C@@H](CCCNC(=N)N)C(=O)NCC(=O)N[C@@H](CC(C)C)C(=O)N[C@@H](CO)C(=O)O [C81–95] | – | – | Binding Assay IC50, I-A^d (capsid 15mers) (I-A^d): high affinity |
| CC[C@H](C)[C@H](NC(=O)[C@H](CCCCN)NC(=O)[C@@H](NC(=O)[C@H](CCC(N)=O)NC(=O)[C@H](CC(=O)O)NC(=O)[C@@H](NC(=O)[C@@H](N)CCC(=O)O)C(C)C)[C@@H](C)O)C(=O)N[C@@H](CCC(N)=O)C(=O)N[C@@H](Cc1ccc(O)cc1)C(=O)N[C@H](C(=O)N[C@H](C(=O)N[C@@H](CCCNC(=N)N)C(=O)N[C@@H](C)C(=O)N[C@@H](CCC(N)=O)C(=O)N[C@@H](CC(C)C)C(=O)O)[C@@H](C)CC)C(C)C [E129–143] | – | – | IC50 (I-A^d; [1]): < 1 µM |
| CC[C@H](C)[C@H](NC(=O)[C@H](CCCCN)NC(=O)[C@@H](N)[C@@H](C)O)C(=O)N[C@@H](CCC(N)=O)C(=O)N[C@@H](Cc1ccc(O)cc1)C(=O)N[C@H](C(=O)N[C@H](C(=O)N[C@@H](CCCNC(=N)N)C(=O)N[C@@H](C)C(=O)N[C@@H](CCC(N)=O)C(=O)N[C@@H](CC(C)C)C(=O)N[C@@H](Cc1c[nH]cn1)C(=O)N[C@H](C(=O)NCC(=O)N[C@@H](C)C(=O)O)C(C)C)[C@@H](C)CC)C(C)C [E133–147] | – | – | IC50 (I-A^d; [1]): < 1 µM |
| CC[C@H](C)[C@H](NC(=O)[C@@H](NC(=O)[C@H](C)NC(=O)[C@H](C)NC(=O)[C@H](Cc1c[nH]cn1)NC(=O)[C@@H]1CCCN1C(=O)[C@@H]1CCCN1C(=O)[C@H](CCC(=O)O)NC(=O)[C@H](Cc1ccccc1)NC(=O)[C@@H](N)CCC(=O)O)[C@@H](C)O)C(=O)N[C@@H](CCCNC(=N)N)C(=O)N[C@H](C(=O)N[C@@H](CC(C)C)C(=O)N[C@@H](C)C(=O)N[C@@H](CC(C)C)C(=O)O)C(C)C [E233–247] | – | – | IC50 (I-A^d; [1]): < 1 µM; Binding Assay IC50, I-E^d (envelope 15mers) (I-E^d): high affinity |
| CC[C@H](C)[C@H](NC(=O)[C@@H](NC(=O)[C@H](C)NC(=O)[C@H](C)NC(=O)[C@H](Cc1c[nH]cn1)NC(=O)[C@@H]1CCCN1)[C@@H](C)O)C(=O)N[C@@H](CCCNC(=N)N)C(=O)N[C@H](C(=O)N[C@@H](CC(C)C)C(=O)N[C@@H](C)C(=O)N[C@@H](CC(C)C)C(=O)NCC(=O)N[C@@H](CC(N)=O)C(=O)N[C@@H](CCC(N)=O)C(=O)N[C@@H](CCC(=O)O)C(=O)O)C(C)C [E237–251] | – | – | IC50 (I-A^d; [1]): < 1 µM |
| CC[C@H](C)[C@H](NC(=O)CN)C(=O)N[C@@H](CC(N)=O)C(=O)N[C@H](C(=O)N[C@@H](CCCNC(=N)N)C(=O)N[C@@H](CC(N)=O)C(=O)N[C@@H](CCSC)C(=O)N[C@H](C(=O)N[C@@H](CCSC)C(=O)N[C@@H](CO)C(=O)N[C@@H](CCSC)C(=O)N[C@@H](CO)C(=O)N[C@@H](CCSC)C(=O)N[C@H](C(=O)N[C@@H](CC(C)C)C(=O)O)[C@@H](C)CC)[C@@H](C)O)[C@@H](C)O [E465–479] | – | – | IC50 (I-A^d; [1]): < 1 µM |
| CC[C@H](C)[C@H](NC(=O)[C@H](C)N)C(=O)N[C@@H](CC(=O)O)C(=O)N[C@@H](CC(C)C)C(=O)N1CCC[C@H]1C(=O)N[C@H](C(=O)N[C@@H](Cc1c[nH]cn1)C(=O)N[C@@H](CCC(=O)O)C(=O)N[C@@H](CC(N)=O)C(=O)N[C@@H](Cc1c[nH]cn1)C(=O)NCC(=O)N[C@@H](CC(C)C)C(=O)N[C@@H](CCCCN)C(=O)N[C@H](C(=O)N[C@@H](CCCNC(=N)N)C(=O)O)[C@@H](C)O)[C@@H](C)O [M1–15] | > 45 | 36.6 | – |
| CC(C)C[C@H](NC(=O)CNC(=O)[C@H](Cc1c[nH]cn1)NC(=O)[C@H](CC(N)=O)NC(=O)[C@H](CCC(=O)O)NC(=O)[C@H](Cc1c[nH]cn1)NC(=O)[C@@H](NC(=O)[C@@H]1CCCN1)[C@@H](C)O)C(=O)N[C@@H](CCCCN)C(=O)N[C@H](C(=O)N[C@@H](CCCNC(=N)N)C(=O)N[C@@H](CCC(N)=O)C(=O)N[C@@H](CCC(=O)O)C(=O)N[C@@H](CCCCN)C(=O)N[C@@H](Cc1c[nH]c2ccccc12)C(=O)O)[C@@H](C)O [M5–19] | 13.2 | > 45 | – |
| CSCC[C@H](NC(=O)[C@H](Cc1c[nH]c2ccccc12)NC(=O)[C@H](CCCCN)NC(=O)[C@H](CCC(=O)O)NC(=O)[C@H](CCC(N)=O)NC(=O)[C@H](CCCNC(=N)N)NC(=O)[C@@H](NC(=O)[C@H](CCCCN)NC(=O)[C@H](CC(C)C)NC(=O)CNC(=O)[C@H](Cc1c[nH]cn1)NC(=O)[C@@H](N)CC(N)=O)[C@@H](C)O)C(=O)N[C@H](C(=O)NCC(=O)N[C@@H](CCCNC(=N)N)C(=O)O)[C@@H](C)O [M9–23] | 40.9 | > 45 | – |
| CSCC[C@H](NC(=O)[C@H](CCCNC(=N)N)NC(=O)CNC(=O)[C@@H](NC(=O)[C@H](CCSC)NC(=O)[C@H](Cc1c[nH]c2ccccc12)NC(=O)[C@H](CCCCN)NC(=O)[C@H](CCC(=O)O)NC(=O)[C@H](CCC(N)=O)NC(=O)[C@H](CCCNC(=N)N)NC(=O)[C@@H](NC(=O)[C@@H](N)CCCCN)[C@@H](C)O)[C@@H](C)O)C(=O)NCC(=O)N[C@@H](CCC(=O)O)C(=O)N[C@@H](CCCNC(=N)N)C(=O)O [M13–27] | 1.9 | > 45 | – |
| CSCC[C@H](NC(=O)[C@H](CCCNC(=N)N)NC(=O)CNC(=O)[C@@H](NC(=O)[C@H](CCSC)NC(=O)[C@H](Cc1c[nH]c2ccccc12)NC(=O)[C@H](CCCCN)NC(=O)[C@@H](N)CCC(=O)O)[C@@H](C)O)C(=O)NCC(=O)N[C@@H](CCC(=O)O)C(=O)N[C@@H](CCCNC(=N)N)C(=O)N[C@@H](CCC(N)=O)C(=O)N[C@@H](CC(C)C)C(=O)N[C@@H](CCC(N)=O)C(=O)N[C@@H](CCCCN)C(=O)O [M17–31] | 20.4 | 20.7 | – |
| CC[C@H](C)[C@H](NC(=O)[C@H](CCCCN)NC(=O)[C@H](CCC(N)=O)NC(=O)[C@H](CC(C)C)NC(=O)[C@H](CCC(N)=O)NC(=O)[C@H](CCCNC(=N)N)NC(=O)[C@H](CCC(=O)O)NC(=O)CNC(=O)[C@H](CCSC)NC(=O)[C@H](CCCNC(=N)N)NC(=O)CNC(=O)[C@@H](N)[C@@H](C)O)C(=O)N[C@@H](CCC(=O)O)C(=O)N[C@@H](CCCNC(=N)N)C(=O)N[C@@H](Cc1c[nH]c2ccccc12)C(=O)O [M21–35] | 42.5 | > 45 | – |
| CC[C@H](C)[C@H](NC(=O)[C@H](CCCCN)NC(=O)[C@H](CCC(N)=O)NC(=O)[C@H](CC(C)C)NC(=O)[C@H](CCC(N)=O)NC(=O)[C@H](CCCNC(=N)N)NC(=O)[C@H](CCC(=O)O)NC(=O)CN)C(=O)N[C@@H](CCC(=O)O)C(=O)N[C@@H](CCCNC(=N)N)C(=O)N[C@@H](Cc1c[nH]c2ccccc12)C(=O)N[C@@H](Cc1ccccc1)C(=O)N[C@H](C(=O)N[C@@H](CCCNC(=N)N)C(=O)N[C@@H](CC(N)=O)C(=O)O)C(C)C [M25–39] | > 45 | 13.2 | – |
| CC[C@H](C)[C@H](NC(=O)[C@H](CCCCN)NC(=O)[C@H](CCC(N)=O)NC(=O)[C@@H](N)CC(C)C)C(=O)N[C@@H](CCC(=O)O)C(=O)N[C@@H](CCCNC(=N)N)C(=O)N[C@@H](Cc1c[nH]c2ccccc12)C(=O)N[C@@H](Cc1ccccc1)C(=O)N[C@H](C(=O)N[C@@H](CCCNC(=N)N)C(=O)N[C@@H](CC(N)=O)C(=O)N1CCC[C@H]1C(=O)N[C@@H](Cc1ccccc1)C(=O)N[C@@H](Cc1ccccc1)C(=O)N[C@@H](C)C(=O)O)C(C)C [M29–43] | 0.593 | 1.56 | – |
| CC(C)C[C@H](NC(=O)[C@H](C)NC(=O)[C@@H](NC(=O)[C@@H](NC(=O)[C@H](C)NC(=O)[C@H](Cc1ccccc1)NC(=O)[C@H](Cc1ccccc1)NC(=O)[C@@H]1CCCN1C(=O)[C@H](CC(N)=O)NC(=O)[C@H](CCCNC(=N)N)NC(=O)[C@@H](NC(=O)[C@H](Cc1ccccc1)NC(=O)[C@H](Cc1c[nH]c2ccccc12)NC(=O)[C@H](CCCNC(=N)N)NC(=O)[C@@H](N)CCC(=O)O)C(C)C)C(C)C)[C@@H](C)O)C(=O)O [M33–47] | 0.0073 | 2.28 | – |
| CC[C@H](C)[C@H](NC(=O)[C@@H](NC(=O)[C@H](CC(C)C)NC(=O)[C@H](C)NC(=O)[C@@H](NC(=O)[C@@H](NC(=O)[C@H](C)NC(=O)[C@H](Cc1ccccc1)NC(=O)[C@H](Cc1ccccc1)NC(=O)[C@@H]1CCCN1C(=O)[C@H](CC(N)=O)NC(=O)[C@H](CCCNC(=N)N)NC(=O)[C@@H](N)C(C)C)C(C)C)[C@@H](C)O)[C@@H](C)O)C(=O)N[C@@H](C)C(=O)N[C@@H](Cc1ccc(O)cc1)C(=O)O [M37–51] | 0.04 | 1.92 | – |
